Measured values taken from patent US8193186B2, “Pyridopyrazines and the use thereof as kinase inhibitors” (AEterna Zentaris GmbH, priority 2003, dated 2012).
Where a name gives a salt, the structure may show the parent alone.

System: c-Raf-Mek-Erk cascade
Test: c-Raf-Mek-Erk ELISA (cell-free reconstituted kinase cascade, Erk phosphorylation)
Assay type: biochemical, human
Details: inhibition of Erk phosphorylation, 1 mM ATP, 10 concentrations 31.6 pM-100 μM, read-out: IC50
Experimental: The inhibitory effect on the following human serine/threonine and tyrosine kinases of the compounds of the invention was tested in conventional kinase assays: PKB/Akt1, c-Raf-Mek-Erk, B-Raf-Mek-Erk, Mek-Erk, MAPKs, PDGFRbeta, Flt-3, c-Kit, c-Abl, KDR, FGFR1 and IGF1R. Both the full-length kinases and truncated fragments—but at least the cytoplasmic kinase domains—were employed. The kinases were prepared as recombinant fusion proteins with GST (glutathion S-transferase) or HIS Tag in Sf9 cell culture. Depending on the substrate type, the various kinase reactions were carried out in sandwich ELISA formates or by means of a simple substrate adsorption assay on 96-well Flashplates (Perkin Elmer).
The testing on substances on the c-Raf-Mek-Erk cascade is described in detail below. Selected test results for the c-Raf-Mek-Erk assays are then listed.
Procedure: c-Raf-Mek-Erk ELISA
Potential inhibitors were firstly investigated at a concentration of 20 μg/ml in initial single-dose determinations on 96-well microtiter plates (MTPs). Substances with >70% inhibition were employed for dose-response studies.
Reconstitution of the c-Raf-Mek-Erk cascade was quantified with the aid of a cell-free ELISA.
A typical kinase assay was carried out in a final volume of 50 μl with in each case 20-150 ng of Raf, Mek, Erk protein, 1 mM ATP, 10 mM MgCl2, 150 mM NaCl, 25 mM beta-glycerophosphate, 25 mM Hepes pH 7.5. Before the kinase reaction, the test substances were each preincubated singly with each of the three kinase proteins at room temperature for 30 minutes. For the kinase reaction, the kinases preincubated with test substance were combined and incubated at 26° C. for 30 minutes. The reaction was stopped by a final concentration of 2% SDS and 10 minutes at 50° C. in a heating block.
For the immunodetection, the reaction mixtures were transferred to 96-well MTPs coated with anti-Erk Ab(K-23, Santa Cruz Biotechnology, incubated at room temperature for 60 minutes and washed 3× with TBST. Anti-phospho-Erk Ab (#9106, New England Biolabs) 1:500 in 50 μl of TBST/1% BSA, was added and incubated at 4° C. overnight. After the MTPs had been washed 3× with TBST, secondary anti-mouse IgG^POD conjugate (#NA931, Pharmacia) 1:2500 was added, incubated at room temperature for 1 h and again washed 3× with TBST. For colorimetric detection of the kinase reaction, 50 μl of OPD (o-phenyldiamine dihydrochloride) chromogen buffer were pipetted into each of the wells and incubated at 37° C. for 30 minutes. The colour reaction was then determined in an ELISA reader at 492 nm.
The experimental determination of dose-response plots took place using the same experimental design with 10 semilogarithmically graded concentrations from 31.6 pM-100 μM. The IC50 values were calculated in GraphPadPrism.

Compound	IC50 [µM]
C=CCNC(=S)Nc1ccc2ncc(-c3ccccc3)nc2n1 [Example 1, 1-allyl-3-(3-phenylpyrido[2,3-b]pyrazin-6-yl)thiourea]	~1
C=CCNC(=S)Nc1ccc2ncc(-c3ccc4ccccc4c3)nc2n1 [Example 2, 1-Allyl-3-(3-naphthalen-2-ylpyrido[2,3-b]pyrazin-6-yl)thiourea]	16
C=CCNC(=S)Nc1ccc2ncc(-c3ccc(OC)cc3)nc2n1 [Example 3, 1-Allyl-3-[3-(4-methoxyphenyl)pyrido[2,3-b]pyrazin-6-yl]thiourea]	~1
C=C(C)CNC(=S)Nc1ccc2ncc(-c3ccccc3)nc2n1 [Example 5, 1-(2-Methylallyl)-3-(3-phenylpyrido[2,3-b]pyrazin-6-yl)thiourea]	~1
C=C(C)CNC(=S)Nc1ccc2ncc(-c3ccc4ccccc4c3)nc2n1 [Example 6, 1-(2-Methylallyl)-3-(3-naphthalen-2-ylpyrido[2,3-b]pyrazin-6-yl)thiourea]	~100
C=C(C)CNC(=S)Nc1ccc2ncc(-c3ccc(OC)cc3)nc2n1 [Example 7, 1-[3-(4-Methoxyphenyl)pyrido[2,3-b]pyrazin-6-yl]-3-(2-methylallyl)thiourea]	43
O=[N+]([O-])c1ccc(NC(=S)Nc2ccc3ncc(-c4ccc5ccccc5c4)nc3n2)cc1 [Example 8, 1-(3-Naphthalen-2-ylpyrido[2,3-b]pyrazin-6-yl)-3-(4-nitrophenyl)thiourea]	> 100
COc1ccc(-c2cnc3ccc(NC(=S)Nc4ccc([N+](=O)[O-])cc4)nc3n2)cc1 [Example 9, 1-[3-(4-Methoxyphenyl)pyrido[2,3-b]pyrazin-6-yl]-3-(4-nitrophenyl)thiourea]	> 100
CC(C)(C)NC(=S)Nc1ccc2ncc(-c3ccccc3)nc2n1 [Example 10, 1-tert-Butyl-3-(3-phenylpyrido[2,3-b]pyrazin-6-yl)thiourea]	> 100
S=C(Nc1ccc2ncc(-c3ccccc3)nc2n1)NC1CC1 [Example 11, 1-Cyclopropyl-3-(3-phenylpyrido[2,3-b]pyrazin-6-yl)thiourea]	0.9
S=C(NCc1ccccc1)Nc1ccc2ncc(-c3ccccc3)nc2n1 [Example 13, 1-Benzyl-3-(3-phenylpyrido[2,3-b]pyrazin-6-yl)thiourea]	> 100
Fc1ccc(NC(=S)Nc2ccc3ncc(-c4ccccc4)nc3n2)cc1 [Example 14, 1-(4-Fluorophenyl)-3-(3-phenylpyrido[2,3-b]pyrazin-6-yl)thiourea]	~50
Cc1ccc(NC(=O)Nc2ccc3ncc(-c4ccccc4)nc3n2)cc1 [Example 33, 1-(3-Phenylpyrido[2,3-b]pyrazin-6-yl)-3-p-tolylurea]	> 100
O=C(Nc1ccc(Cl)c(C(F)(F)F)c1)Nc1ccc2ncc(-c3ccccc3)nc2n1 [Example 34, 1-(4-Chloro-3-trifluoromethylphenyl)-3-(3-phenylpyrido[2,3-b]pyrazin-6-yl)urea]	> 100
O=C(NCCN1CCOCC1)Nc1ccc2ncc(-c3ccccc3)nc2n1 [Example 35, 1-(2-Morpholin-4-ylethyl)-3-(3-phenylpyrido[2,3-b]pyrazin-6-yl)urea]	15

Same assay, conditions: read-out: IC50 values, inhibition of Erk phosphorylation

Compound	IC50 [µM]
C=CCNC(=S)Nc1ccc2ncc(-c3ccc(O)cc3)nc2n1 [Example 4, 1-Allyl-3-[3-(4-hydroxyphenyl)pyrido[2,3-b]pyrazin-6-yl]thiourea hydrochloride]	0.4
CNC(=S)Nc1ccc2ncc(-c3ccccc3)nc2n1 [Example 12, 1-Methyl-3-(3-phenylpyrido[2,3-b]pyrazin-6-yl)thiourea]	0.4

System: not given
Test: not given
Details: not given

Compound	melting point
C#CCNC(=S)Nc1ccc2ncc(-c3ccc(O)cc3)nc2n1 [Example 24, 1-[3-(4-Hydroxyphenyl)pyrido[2,3-b]pyrazin-6-yl]-3-prop-2-ynylthiourea]	350 °C (dec.)
CC=CNC(=S)Nc1ccc2nc(-c3ccc(O)cc3)c(-c3ccc(O)cc3)nc2n1 [Example 28, 1-[2,3-Bis(4-hydroxyphenyl)pyrido[2,3-b]pyrazin-6-yl]-3-(propenyl)thiourea]	240 °C (dec.)
